In brackets after ≈: the same amount, converted by molar mass.
Legend:
Assay type in all cases: functional
[1] = tested on: Staphylococcus epidermidis; experiment: Antibacterial activity against Staphylococcus epidermidis ATCC 12228 after 20 to 22 hr by agar dilution method
Bacillus subtilis = experiment: Antibacterial activity against Bacillus subtilis ATCC 6633 after 20 to 22 hr by agar dilution method
[2] = tested on: Bordetella bronchiseptica; experiment: Antibacterial activity against Bordetella bronchiseptica ATCC 4617 after 20 to 22 hr by agar dilution method
Micrococcus = experiment: Antibacterial activity against Micrococcus […] ATCC 9341 after 20 to 22 hr by agar dilution method
Proteus vulgaris = experiment: Antibacterial activity against Proteus vulgaris ATCC 13315 after 20 to 22 hr by agar dilution method
Staphylococcus aureus = experiment: Antibacterial activity against Staphylococcus aureus ATCC 25923 after 20 to 22 hr by agar dilution method
Bacillus cereus = experiment: Antibacterial activity against Bacillus cereus ATCC 11778 after 20 to 22 hr by agar dilution method

| MIC [1] | MIC (Bacillus subtilis) | MIC [2] | MIC (Micrococcus) | MIC (Proteus vulgaris) | MIC (Staphylococcus aureus) | MIC (Bacillus cereus) | SMILES |
| --- | --- | --- | --- | --- | --- | --- | --- |
| > 100 µg/mL | > 100 µg/mL | > 100 µg/mL | > 100 µg/mL | 5 µg/mL (≈ 16.7 µM) | > 100 µg/mL | > 100 µg/mL | C=C1CC(Cn2ncc(=O)[nH]c2=O)(c2ccccc2)OC1=O (stereo unspecified) |
| > 100 µg/mL | > 100 µg/mL | > 100 µg/mL | > 100 µg/mL | 50 µg/mL (≈ 158 µM) | > 100 µg/mL | 50 µg/mL (≈ 158 µM) | C=C1CC(Cn2ncc(=O)[nH]c2=O)(c2ccc(F)cc2)OC1=O (stereo unspecified) |
| > 100 µg/mL | > 100 µg/mL | > 100 µg/mL | > 100 µg/mL | 25 µg/mL (≈ 66.6 µM) | > 100 µg/mL | 50 µg/mL (≈ 133 µM) | C=C1CC(Cn2ncc(=O)[nH]c2=O)(c2ccc(-c3ccccc3)cc2)OC1=O (stereo unspecified) |
| > 100 µg/mL | > 100 µg/mL | > 100 µg/mL | > 100 µg/mL | > 100 µg/mL | > 100 µg/mL | > 100 µg/mL | C=C1CC(Cn2nc(C)c(=O)[nH]c2=O)(c2ccccc2)OC1=O (stereo unspecified) |
| > 100 µg/mL | > 100 µg/mL | > 100 µg/mL | > 100 µg/mL | > 100 µg/mL | > 100 µg/mL | 50 µg/mL (≈ 151 µM) | C=C1CC(Cn2nc(C)c(=O)[nH]c2=O)(c2ccc(F)cc2)OC1=O (stereo unspecified) |
| 25 µg/mL (≈ 64.2 µM) | 25 µg/mL (≈ 64.2 µM) | 50 µg/mL (≈ 128 µM) | > 100 µg/mL | > 100 µg/mL | > 100 µg/mL | > 100 µg/mL | C=C1CC(Cn2nc(C)c(=O)[nH]c2=O)(c2ccc(-c3ccccc3)cc2)OC1=O (stereo unspecified) |
| > 100 µg/mL | > 100 µg/mL | > 100 µg/mL | > 100 µg/mL | > 100 µg/mL | > 100 µg/mL | > 100 µg/mL | C=C1CC(Cn2ncc(=O)n(CC3(c4ccccc4)CC(=C)C(=O)O3)c2=O)(c2ccccc2)OC1=O (stereo unspecified) |
| > 100 µg/mL | > 100 µg/mL | > 100 µg/mL | > 100 µg/mL | > 100 µg/mL | > 100 µg/mL | 10 µg/mL (≈ 19.2 µM) | C=C1CC(Cn2ncc(=O)n(CC3(c4ccc(F)cc4)CC(=C)C(=O)O3)c2=O)(c2ccc(F)cc2)OC1=O (stereo unspecified) |
| 10 µg/mL (≈ 15.7 µM) | 10 µg/mL (≈ 15.7 µM) | 25 µg/mL (≈ 39.2 µM) | 50 µg/mL (≈ 78.4 µM) | 25 µg/mL (≈ 39.2 µM) | 50 µg/mL (≈ 78.4 µM) | 25 µg/mL (≈ 39.2 µM) | C=C1CC(Cn2ncc(=O)n(CC3(c4ccc(-c5ccccc5)cc4)CC(=C)C(=O)O3)c2=O)(c2ccc(-c3ccccc3)cc2)OC1=O (stereo unspecified) |
| > 100 µg/mL | > 100 µg/mL | > 100 µg/mL | > 100 µg/mL | > 100 µg/mL | > 100 µg/mL | > 100 µg/mL | C=C1CC(Cn2nc(C)c(=O)n(CC3(c4ccccc4)CC(=C)C(=O)O3)c2=O)(c2ccccc2)OC1=O (stereo unspecified) |
| > 100 µg/mL | > 100 µg/mL | > 100 µg/mL | 25 µg/mL (≈ 46.7 µM) | > 100 µg/mL | > 100 µg/mL | 25 µg/mL (≈ 46.7 µM) | C=C1CC(Cn2nc(C)c(=O)n(CC3(c4ccc(F)cc4)CC(=C)C(=O)O3)c2=O)(c2ccc(F)cc2)OC1=O (stereo unspecified) |
| > 100 µg/mL | > 100 µg/mL | > 100 µg/mL | > 100 µg/mL | > 100 µg/mL | > 100 µg/mL | 25 µg/mL (≈ 38.4 µM) | C=C1CC(Cn2nc(C)c(=O)n(CC3(c4ccc(-c5ccccc5)cc4)CC(=C)C(=O)O3)c2=O)(c2ccc(-c3ccccc3)cc2)OC1=O (stereo unspecified) |
| > 100 µg/mL | > 100 µg/mL | > 100 µg/mL | > 100 µg/mL | > 100 µg/mL | > 100 µg/mL | > 100 µg/mL | O=c1cn[nH]c(=O)[nH]1 [6-AZAURACIL] |

— ChEMBL document CHEMBL3045110, “Synthesis and antibacterial evaluation of 6-azapyrimidines with -methylene--(4-substituted phenyl)--butyrolactone pharmacophores” (2011)
